What all share (format): biochemical
Holding throughout (settings): Table 5

In assay [1] the target is JMJD3 (Homo sapiens, UniProt O15054). Nature of the assay: JMJD3 in vitro enzyme inhibition assay (AlphaScreen). The text has this:
(§1) This assay determines the ability of a test compound to inhibit Jarid1B, JMJD2C and JMJD3 demethylase activity. Baculovirus expressed Jarid1B (GenBank Accession #NM-006618, AA 2-751) was purchased from BPS Bioscience (Cat #50121) or custom made by MolecularThroughput. Baculovirus expressed JMJD2C (GenBank Accession #BC143571, AA 2-372) was purchased from BPS Bioscience (Cat#50105). Baculovirus expressed JMJD3 (GenBank Accession #NM-001080424, AA1043-end) was purchased from BPS Bioscience (Cat#50115).
The ability of test compounds to inhibit the activity of JMJD3 was determined in 384-well plate format under the following reaction conditions: 1 nM JMJD3, 250 nM H3K27me3-biotin labeled peptide (Anaspec cat #64367), 1 μM alpha-ketoglutaric acid in assay buffer of 50 mM HEPES, pH7.3, 0.005% Brij35, 0.5 mM TCEP, 0.2 mg/ml BSA, 50 μM sodium L-ascorbate, 5 μM ammonium iron(II) sulfate. Reaction product is determined quantitatively by AlphaScreen detection after the addition of detection reagents anti-H3K27me1 antibody, 5 μg/ml AlphaScreen® Streptavidin-coated Donor beads, and 5 μg/ml AlphaScreen® Protein A Acceptor beads in 50 mM HEPES, pH7.3, 10 mM NaCl, 0.005% Brij35, 10 mM EDTA, 2 mg/ml BSA. […]

In assay [2] the target is Jarid1B (Homo sapiens (Human), UniProt Q9UGL1). The assay is described as follows: Jarid1B in vitro enzyme inhibition assay (TR-FRET).
Sequence of Jarid1B (Q9UGL1 2-751): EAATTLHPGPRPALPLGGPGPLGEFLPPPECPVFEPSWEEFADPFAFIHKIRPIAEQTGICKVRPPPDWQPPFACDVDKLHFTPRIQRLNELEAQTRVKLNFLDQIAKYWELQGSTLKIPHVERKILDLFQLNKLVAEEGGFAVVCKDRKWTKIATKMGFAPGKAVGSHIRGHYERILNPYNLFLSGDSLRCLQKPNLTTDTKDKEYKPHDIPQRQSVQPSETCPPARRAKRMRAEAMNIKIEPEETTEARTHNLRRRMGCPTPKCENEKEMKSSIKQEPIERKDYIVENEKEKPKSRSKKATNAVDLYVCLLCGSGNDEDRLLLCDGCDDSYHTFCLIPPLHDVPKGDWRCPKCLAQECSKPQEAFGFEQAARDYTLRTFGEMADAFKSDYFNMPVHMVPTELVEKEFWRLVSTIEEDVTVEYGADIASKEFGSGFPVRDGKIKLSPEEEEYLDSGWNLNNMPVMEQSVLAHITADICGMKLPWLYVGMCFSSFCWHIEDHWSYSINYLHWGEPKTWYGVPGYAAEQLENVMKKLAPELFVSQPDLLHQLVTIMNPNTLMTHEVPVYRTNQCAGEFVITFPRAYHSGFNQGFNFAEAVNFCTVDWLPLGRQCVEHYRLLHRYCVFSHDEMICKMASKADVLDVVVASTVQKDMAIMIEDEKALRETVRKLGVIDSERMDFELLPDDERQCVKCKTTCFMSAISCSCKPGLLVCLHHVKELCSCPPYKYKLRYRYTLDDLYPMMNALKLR
Description: as §1
The ability of test compounds to inhibit the activity of Jarid1B was determined in 384-well plate format under the following reaction conditions: 0.8 nM Jarid1B, 300 nM H3K4me3-biotin labeled peptide (Anaspec cat #64357), 2 μM alpha-ketoglutaric acid in assay buffer of 50 mM HEPES, pH7.3, 0.005% Brij35, 0.5 mM TCEP, 0.2 mg/ml BSA, 50 μM sodium L-ascorbate, and 2 μM ammonium iron(II) sulfate. Reaction product was determined quantitatively by TR-FRET after the addition of detection reagent Phycolink Streptavidin-allophycocyanin (Prozyme) and Europium-anti-mono- or di-methylated histone H3 lysine 4 (H3K4me1-2) antibody (PerkinElmer) in the presence of 5 mM EDTA in LANCE detection buffer (PerkinElmer) at a final concentration of 25 nM and 1 nM, respectively. […]

Assay [3] has as its target JMJD2C (Homo sapiens (Human), UniProt Q9H3R0). Nature of the assay: JMJD2C in vitro enzyme inhibition assay (TR-FRET).
Description: as §1
The ability of test compounds to inhibit the activity of JMJD2C was determined in 384-well plate format under the following reaction conditions: 0.3 nM JMJD2C, 300 nM H3K9me3-biotin labeled peptide (Anaspec cat #64360), 2 μM alpha-ketoglutaric acid in assay buffer of 50 mM HEPES, pH7.3, 0.005% Brij35, 0.5 mM TCEP, 0.2 mg/ml BSA, 50 μM sodium L-ascorbate, and 2 μM ammonium iron(II) sulfate. Reaction product was determined quantitatively by TR-FRET after the addition of detection reagent Phycolink Streptavidin-allophycocyanin (Prozyme) and Europium-anti-di-methylated histone H3 lysine 9 (H3K9me2) antibody (PerkinElmer) in the presence of 5 mM EDTA in LANCE detection buffer (PerkinElmer) at a final concentration of 50 nM and 1 nM, respectively. […]
(In general: TR-FRET usually uses a lanthanide donor and a delayed reading to cut background.)

Sequence of JMJD2C (Q9H3R0 2-372): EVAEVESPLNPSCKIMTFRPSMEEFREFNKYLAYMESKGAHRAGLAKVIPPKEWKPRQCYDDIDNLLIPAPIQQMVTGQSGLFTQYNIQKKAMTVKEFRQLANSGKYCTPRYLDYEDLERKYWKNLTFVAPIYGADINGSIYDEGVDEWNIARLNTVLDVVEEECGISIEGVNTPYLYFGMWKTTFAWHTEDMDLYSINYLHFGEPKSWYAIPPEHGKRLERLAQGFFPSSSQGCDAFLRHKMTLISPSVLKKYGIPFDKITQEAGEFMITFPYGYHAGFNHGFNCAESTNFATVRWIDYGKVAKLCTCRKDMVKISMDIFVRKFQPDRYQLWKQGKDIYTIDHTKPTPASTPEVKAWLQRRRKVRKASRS

For orientation: IC50 means the concentration that inhibits the measured activity by half. High values mean a need for much substance, low ones inhibition by little substance. As to “2-{1-[(6-fluoro-1,2,3,4- tetrahydronaphthalen-1-yl)methyl]-1H- imidazol-4-yl}-4-[5-(trifluoromethyl)-1H 1,2,3-triazol-4-yl]pyridine [Example 100]”, the figures for the half-maximal inhibitory concentration (IC50) in assay [1], in assay [2] and in assay [3] were greater than 10 µM, no more than 0.1 µM and greater than 10 µM, respectively.

Source of the values: US9896436B2, “Histone demethylase inhibitors” (Celgene Quanticel Research, Inc., priority 2014, dated 2018).
